PubChem BioAssay AID192 (DTP/NCI, 2004)
“And” between values parts separate entries of the source, which are not always exact repeats. Identical values can stand only once. Inconclusive results and toxic doses are left out. How the source made its calls: active means survival T/C of 150% or more; inactive means T/C below 125% in these data.

Test system: BDF1 mice, B16 melanoma ip, median survival T/C
Test: NCI In Vivo Anticancer Drug Screen. Data for tumor model B16 Melanoma (intraperitoneal) in B6D2F1 (BDF1) mice
Conditions: endpoint: median survival time, higher = longer survival
Summary of the method: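 Compounds were tested in mice carrying transplantable tumors. Survival or tumor size was recorded, and each value is the treated-group measurement (T) divided by that of the vehicle-treated control group (C).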

[1] = dose: 100.0 mg/kg/injection, schedule: Q01DX009 (ip), vehicle: Klucel (hydroxypropylcellulose) (HPC)
[2] = dose: 200.0 mg/kg/injection, schedule: Q01DX009 (ip), vehicle: Klucel (hydroxypropylcellulose) (HPC)
[3] = dose: 400.0 mg/kg/injection, schedule: Q01DX009 (ip), vehicle: Klucel (hydroxypropylcellulose) (HPC)
[4] = dose: 50.0 mg/kg/injection, schedule: Q04DX003 (ip), vehicle: saline
[5] = dose: 100.0 mg/kg/injection, schedule: Q04DX003 (ip), vehicle: saline
[6] = dose: 200.0 mg/kg/injection, schedule: Q04DX003 (ip), vehicle: saline
[7] = dose: 6.25 mg/kg/injection, schedule: Q01DX009 (ip), vehicle: saline
[8] = dose: 25.0 mg/kg/injection, schedule: Q01DX009 (ip), vehicle: saline
[9] = dose: 12.5 mg/kg/injection, schedule: Q01DX009 (ip), vehicle: saline with Tween-80
[10] = dose: 25.0 mg/kg/injection, schedule: Q01DX009 (ip), vehicle: saline with Tween-80
[11] = dose: 50.0 mg/kg/injection, schedule: Q01DX009 (ip), vehicle: saline with Tween-80
[12] = dose: 100.0 mg/kg/injection, schedule: Q04DX003 (ip), vehicle: Klucel (hydroxypropylcellulose) (HPC)
[13] = dose: 200.0 mg/kg/injection, schedule: Q04DX003 (ip), vehicle: Klucel (hydroxypropylcellulose) (HPC)
[14] = dose: 100.0 mg/kg/injection, schedule: Q01DX009 (ip), vehicle: saline
[15] = dose: 6.25 mg/kg/injection, schedule: Q01DX009 (ip), vehicle: saline with Tween-80
[16] = dose: 50.0 mg/kg/injection, schedule: Q01DX009 (ip), vehicle: Klucel (hydroxypropylcellulose) (HPC)
[17] = dose: 6.25 mg/kg/injection, schedule: Q01DX009 (ip), vehicle: Klucel (hydroxypropylcellulose) (HPC)
[18] = dose: 12.5 mg/kg/injection, schedule: Q01DX009 (ip), vehicle: Klucel (hydroxypropylcellulose) (HPC)
[19] = dose: 25.0 mg/kg/injection, schedule: Q01DX009 (ip), vehicle: Klucel (hydroxypropylcellulose) (HPC)
[20] = dose: 3.12 mg/kg/injection, schedule: Q01DX009 (ip), vehicle: Klucel (hydroxypropylcellulose) (HPC)
[21] = dose: 100.0 mg/kg/injection, schedule: Q01DX009 (ip), vehicle: saline with Tween-80
[22] = dose: 12.5 mg/kg/injection, schedule: Q01DX009 (ip), vehicle: saline
[23] = dose: 50.0 mg/kg/injection, schedule: Q01DX009 (ip), vehicle: saline

Measured: T/C

COc1ccc(C2CCc3cc4c(cc3/C2=N/OC(C)=O)OCO4)cc1OC (stereo not drawn)
inactive: [1] 109 % of control | [2] 110 % of control | [3] 105 % of control

COC1=CC(=O)N(C(=O)C2CSC(C(CO)NC(=O)c3csc(/C=N/O)n3)=N2)C1 (stereo not drawn)
inactive: [1] 97 % of control | [3] 106 % of control

CC#CS(=O)(=O)C(C)(C)C
inactive: [4] 104 % of control | [5] 106 % of control | [6] 105 % of control

CC(C)C1OC(=O)/C=C/C=C/C=C/C=C/C=C/CC(O)C(C)C(O)CC(O)CC(O)CC(O)CC(O)CC(O)CC(O)/C=C/C1C (stereo not drawn)
inactive: [7] 98 % of control

CCCC[P+](c1ccccc1)(c1ccccc1)c1ccccc1
inactive: [7] 90 % of control | [8] 95 % of control

Cc1ccc(N=NN(C)C)cc1
inactive: [9] 113 % of control | [10] 115 % of control | [11] 106 % of control

O=C1C(=C(C(F)(F)F)C(F)(F)F)CCc2ccccc21
inactive: dose: 50.0 mg/kg/injection, schedule: Q04DX003 (ip), vehicle: Klucel (hydroxypropylcellulose) (HPC) 95 % of control | [12] 95 % of control | [13] 100 % of control

Oc1ccc(Nc2ccnc3cc(Cl)ccc23)cc1CN(CCCl)CCCl
inactive: dose: 0.31 mg/kg/injection, schedule: Q01DX009 (ip), vehicle: saline 97 % of control | dose: 0.63 mg/kg/injection, schedule: Q01DX009 (ip), vehicle: saline 105 % of control | dose: 1.25 mg/kg/injection, schedule: Q01DX009 (ip), vehicle: saline 107 % of control and 113 % of control | dose: 2.5 mg/kg/injection, schedule: Q01DX009 (ip), vehicle: saline 115 % of control

C1=C(c2ccccc2)CCCC1
inactive: [12] 90 % of control | [13] 93 % of control | dose: 400.0 mg/kg/injection, schedule: Q04DX003 (ip), vehicle: Klucel (hydroxypropylcellulose) (HPC) 103 % of control

O=C1CCCN1
inactive: [14] 100 % of control | dose: 400.0 mg/kg/injection, schedule: Q01DX009 (ip), vehicle: saline 94 % of control

CCn1cnc2c(=S)nc[nH]c21
inactive: [15] 97 % of control | [9] 86 % of control | [10] 95 % of control | [11] 89 % of control and 104 % of control

Cc1cnc2c(NC(=O)CCl)nn(C)c2n1
inactive: [16] 103 % of control | [1] 101 % of control

COc1ccc(C(OC2OC(n3cnc4c(=S)nc(N)[nH]c43)CC2OC(C)=O)(c2ccccc2)c2ccc(OC)cc2)cc1 (stereo not drawn)
inactive: [1] 90 % of control | [2] 96 % of control | [3] 93 % of control

O=C(CCCCC(=O)Nc1ccc(C2=NCCN2)cc1)Nc1ccc(C2=NCCN2)cc1
inactive: [4] 96 % of control | [5] 93 % of control | [6] 90 % of control | dose: 400.0 mg/kg/injection, schedule: Q04DX003 (ip), vehicle: saline 86 % of control

CN(C1CCCCC1)C1CCCCC1
inactive: [17] 92 % of control | [18] 92 % of control | [19] 94 % of control

CCCCCCCCCCCCCCCC(=O)N(C/C=C/CN(C(=O)CCCCCCCCCCCCCCC)C(C)CCCN(CC)CC)C(C)CCCN(CC)CC (stereo not drawn)
inactive: dose: 3.13 mg/kg/injection, schedule: Q01DX009 (ip), vehicle: other 98 % of control | dose: 6.25 mg/kg/injection, schedule: Q01DX009 (ip), vehicle: other 99 % of control | dose: 12.5 mg/kg/injection, schedule: Q01DX009 (ip), vehicle: other 93 % of control

CC(=O)OCC1OC(n2cc(CBr)nn2)C(OC(C)=O)C(OC(C)=O)C1OC(C)=O (stereo not drawn)
inactive: [20] 97 % of control | [17] 98 % of control | [18] 108 % of control | [19] 100 % of control | [16] 98 % of control

Nc1ccc(S(N)(=O)=O)cc1
inactive: [10] 97 % of control and 99 % of control | [11] 94 % of control and 102 % of control | [21] 91 % of control and 100 % of control | dose: 200.0 mg/kg/injection, schedule: Q01DX009 (ip), vehicle: saline with Tween-80 96 % of control and 102 % of control | dose: 400.0 mg/kg/injection, schedule: Q01DX009 (ip), vehicle: saline with Tween-80 99 % of control and 105 % of control

C=CS(C=C)=NS(=O)(=O)c1ccc(C)cc1
inactive: dose: 1.56 mg/kg/injection, schedule: Q01DX009 (ip), vehicle: Klucel (hydroxypropylcellulose) (HPC) 95 % of control and 108 % of control | [20] 95 % of control and 101 % of control | [17] 97 % of control and 98 % of control | [18] 107 % of control and 110 % of control | [19] 88 % of control and 95 % of control

CCCC1CC[N-]CC1.CCCC1CC[N-]CC1.CCCC1CC[N-]CC1.CCCC1CC[N-]CC1.[Cl][Rh][Cl]
inactive: dose: 0.37 mg/kg/injection, schedule: Q01DX009 (ip), vehicle: Klucel (hydroxypropylcellulose) (HPC) 104 % of control | dose: 0.75 mg/kg/injection, schedule: Q01DX009 (ip), vehicle: Klucel (hydroxypropylcellulose) (HPC) 102 % of control | dose: 1.5 mg/kg/injection, schedule: Q01DX009 (ip), vehicle: Klucel (hydroxypropylcellulose) (HPC) 100 % of control | dose: 1.56 mg/kg/injection, schedule: Q01DX009 (ip), vehicle: saline with Tween-80 109 % of control | dose: 3.13 mg/kg/injection, schedule: Q01DX009 (ip), vehicle: saline with Tween-80 116 % of control | [15] 98 % of control

CCC(=O)NC(CC(C)C)C(=O)NC(CC(C)C)C(=O)NC(C=O)CCCN=C(N)N (stereo not drawn) (tested in a mixture with another compound)
inactive: [22] 100 % of control and 105 % of control | [8] 94 % of control and 105 % of control | [23] 99 % of control and 105 % of control | [14] 108 % of control and 120 % of control

CCCCCCCCOC(=O)Nc1ccc(OCC)cc1
inactive: dose: 1.5 mg/kg/injection, schedule: Q01DX009 (ip), vehicle: saline with Tween-80 107 % of control | dose: 3.0 mg/kg/injection, schedule: Q01DX009 (ip), vehicle: saline with Tween-80 96 % of control | dose: 6.0 mg/kg/injection, schedule: Q01DX009 (ip), vehicle: saline with Tween-80 96 % of control

CC(C)(SCCc1ccc([N+](=O)[O-])cc1)C(N)C(=O)O (stereo not drawn)
inactive: [17] 88 % of control

S=P(NCCNP(=S)(N1CC1)N1CC1)(N1CC1)N1CC1
inactive: [18] 118 % of control | [19] 124 % of control

CNCCCN(C)CCCNC
inactive: [7] 121 % of control | [22] 109 % of control | [8] 96 % of control and 111 % of control

CNC(=O)Oc1cccn(C(=O)NC)c1=O
inactive: [22] 86 % of control | [8] 91 % of control and 93 % of control | [23] 87 % of control | dose: 75.0 mg/kg/injection, schedule: Q01DX009 (ip), vehicle: saline 88 % of control | [14] 86 % of control

CCOc1ccc(NC(=O)C2CCC(C)(C(=O)O)C2(C)C)cc1 (stereo not drawn)
inactive: dose: 66.0 mg/kg/injection, schedule: Q01DX009 (ip), vehicle: saline with Tween-80 88 % of control | [21] 100 % of control | dose: 150.0 mg/kg/injection, schedule: Q01DX009 (ip), vehicle: saline with Tween-80 113 % of control

CC(=O)Oc1c(C)c2c(O)c3c1C1=C(OCOC1=C(C)C3=O)C(C)=CC(C)(O)C(O)C(C)C(O)C1C(=O)OC(C(C)/C=C\C=C(C)C(=O)N2)C(C)C1O (stereo not drawn)
inactive: [23] 97 % of control
